Experiments:
TGF-beta receptor type-1 = target: T1, TGF-beta receptor type-1 (Homo sapiens, UniProt P36897); assay: Inhibition of ALK5; conditions: read-out: pIC50 (converted)
T1 sequence (P36897 whole entry): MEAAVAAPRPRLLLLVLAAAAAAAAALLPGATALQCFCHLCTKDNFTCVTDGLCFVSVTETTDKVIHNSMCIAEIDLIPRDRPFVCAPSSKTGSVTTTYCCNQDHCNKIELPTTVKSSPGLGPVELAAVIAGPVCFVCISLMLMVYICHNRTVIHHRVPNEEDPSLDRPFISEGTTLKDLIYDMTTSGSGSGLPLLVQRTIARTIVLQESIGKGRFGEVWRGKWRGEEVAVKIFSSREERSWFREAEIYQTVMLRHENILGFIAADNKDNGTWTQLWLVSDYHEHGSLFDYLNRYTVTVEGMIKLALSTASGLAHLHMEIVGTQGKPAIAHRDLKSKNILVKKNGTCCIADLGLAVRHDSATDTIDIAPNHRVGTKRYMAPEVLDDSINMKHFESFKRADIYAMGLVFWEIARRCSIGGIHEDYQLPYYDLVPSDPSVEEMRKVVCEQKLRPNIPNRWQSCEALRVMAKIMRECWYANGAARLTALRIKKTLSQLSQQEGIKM

HEL = assay: Antiproliferative activity against human HEL 92.1.7 cells; format: functional, cell-based
[1] = target: T2, 3-phosphoinositide-dependent protein kinase 1 (Homo sapiens, UniProt O15530); assay: Inhibition of PDK1-mediated RSK phosphorylation at Ser221 residue in human PC3 cells by ELISA; format: cell-based, PC-3
T2 sequence (O15530 whole entry): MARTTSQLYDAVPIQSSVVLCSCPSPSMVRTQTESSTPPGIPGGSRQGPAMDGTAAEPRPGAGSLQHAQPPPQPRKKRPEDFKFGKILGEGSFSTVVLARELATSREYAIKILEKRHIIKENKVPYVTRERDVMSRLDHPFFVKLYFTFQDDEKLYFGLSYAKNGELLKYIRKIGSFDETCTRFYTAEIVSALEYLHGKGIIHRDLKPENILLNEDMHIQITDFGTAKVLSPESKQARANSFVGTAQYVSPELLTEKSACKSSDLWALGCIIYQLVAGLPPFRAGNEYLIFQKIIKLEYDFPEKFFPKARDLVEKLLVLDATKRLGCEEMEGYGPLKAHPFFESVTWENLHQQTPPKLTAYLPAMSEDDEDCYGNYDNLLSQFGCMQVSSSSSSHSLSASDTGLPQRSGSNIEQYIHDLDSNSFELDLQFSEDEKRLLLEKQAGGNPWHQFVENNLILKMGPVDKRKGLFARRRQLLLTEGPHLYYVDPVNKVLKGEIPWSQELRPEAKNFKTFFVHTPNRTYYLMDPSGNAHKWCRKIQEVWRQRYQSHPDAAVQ

OCI-AML2 = assay: Antiproliferative activity against human OCI-AML2 cells; format: functional, cell-based
[2] = Antiproliferative activity against human F-36P cells; format: functional, cell-based
[3] = Antiproliferative activity against human OCI-AML3 cells; format: functional, cell-based; conditions: OCI-AML-3
Aurora kinase A = target: T3, Aurora kinase A (Homo sapiens, UniProt O14965); assay: Inhibition of aurora A
T3 sequence (O14965 whole entry): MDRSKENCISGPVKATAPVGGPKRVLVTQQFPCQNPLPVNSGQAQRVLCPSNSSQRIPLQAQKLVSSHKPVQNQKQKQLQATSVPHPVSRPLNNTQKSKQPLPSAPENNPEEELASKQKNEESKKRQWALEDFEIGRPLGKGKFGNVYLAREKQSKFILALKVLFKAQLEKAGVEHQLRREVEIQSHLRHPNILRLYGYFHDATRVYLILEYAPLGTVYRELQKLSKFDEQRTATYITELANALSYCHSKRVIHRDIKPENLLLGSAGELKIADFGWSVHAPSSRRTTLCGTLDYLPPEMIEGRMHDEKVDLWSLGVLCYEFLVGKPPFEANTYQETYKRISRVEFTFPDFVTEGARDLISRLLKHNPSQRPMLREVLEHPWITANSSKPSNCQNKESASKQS

Aurora kinase B = Aurora kinase B (Homo sapiens, UniProt Q96GD4); assay: Inhibition of aurora B
Sequence of Aurora kinase B (Q96GD4 whole entry): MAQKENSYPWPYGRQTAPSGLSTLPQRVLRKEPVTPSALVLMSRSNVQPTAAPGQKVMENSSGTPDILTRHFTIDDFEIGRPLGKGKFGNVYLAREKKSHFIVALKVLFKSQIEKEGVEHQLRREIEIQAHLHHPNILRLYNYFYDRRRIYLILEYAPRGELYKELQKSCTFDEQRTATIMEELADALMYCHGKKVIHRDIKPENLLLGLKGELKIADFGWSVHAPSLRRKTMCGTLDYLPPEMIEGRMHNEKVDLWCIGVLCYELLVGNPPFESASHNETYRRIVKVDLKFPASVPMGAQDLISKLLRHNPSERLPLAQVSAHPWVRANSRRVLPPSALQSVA

[4] = target: T2, 3-phosphoinositide-dependent protein kinase 1; assay: Inhibition of PDK1-mediated AKT phosphorylation at Thr308 residue in human PC3 cells by ELISA; format: cell-based, PC-3
[5] = target: Rho-associated protein kinase 1 (Homo sapiens, UniProt Q13464); assay: Inhibition of ROCK1
Sequence of Rho-associated protein kinase 1 (Q13464 whole entry): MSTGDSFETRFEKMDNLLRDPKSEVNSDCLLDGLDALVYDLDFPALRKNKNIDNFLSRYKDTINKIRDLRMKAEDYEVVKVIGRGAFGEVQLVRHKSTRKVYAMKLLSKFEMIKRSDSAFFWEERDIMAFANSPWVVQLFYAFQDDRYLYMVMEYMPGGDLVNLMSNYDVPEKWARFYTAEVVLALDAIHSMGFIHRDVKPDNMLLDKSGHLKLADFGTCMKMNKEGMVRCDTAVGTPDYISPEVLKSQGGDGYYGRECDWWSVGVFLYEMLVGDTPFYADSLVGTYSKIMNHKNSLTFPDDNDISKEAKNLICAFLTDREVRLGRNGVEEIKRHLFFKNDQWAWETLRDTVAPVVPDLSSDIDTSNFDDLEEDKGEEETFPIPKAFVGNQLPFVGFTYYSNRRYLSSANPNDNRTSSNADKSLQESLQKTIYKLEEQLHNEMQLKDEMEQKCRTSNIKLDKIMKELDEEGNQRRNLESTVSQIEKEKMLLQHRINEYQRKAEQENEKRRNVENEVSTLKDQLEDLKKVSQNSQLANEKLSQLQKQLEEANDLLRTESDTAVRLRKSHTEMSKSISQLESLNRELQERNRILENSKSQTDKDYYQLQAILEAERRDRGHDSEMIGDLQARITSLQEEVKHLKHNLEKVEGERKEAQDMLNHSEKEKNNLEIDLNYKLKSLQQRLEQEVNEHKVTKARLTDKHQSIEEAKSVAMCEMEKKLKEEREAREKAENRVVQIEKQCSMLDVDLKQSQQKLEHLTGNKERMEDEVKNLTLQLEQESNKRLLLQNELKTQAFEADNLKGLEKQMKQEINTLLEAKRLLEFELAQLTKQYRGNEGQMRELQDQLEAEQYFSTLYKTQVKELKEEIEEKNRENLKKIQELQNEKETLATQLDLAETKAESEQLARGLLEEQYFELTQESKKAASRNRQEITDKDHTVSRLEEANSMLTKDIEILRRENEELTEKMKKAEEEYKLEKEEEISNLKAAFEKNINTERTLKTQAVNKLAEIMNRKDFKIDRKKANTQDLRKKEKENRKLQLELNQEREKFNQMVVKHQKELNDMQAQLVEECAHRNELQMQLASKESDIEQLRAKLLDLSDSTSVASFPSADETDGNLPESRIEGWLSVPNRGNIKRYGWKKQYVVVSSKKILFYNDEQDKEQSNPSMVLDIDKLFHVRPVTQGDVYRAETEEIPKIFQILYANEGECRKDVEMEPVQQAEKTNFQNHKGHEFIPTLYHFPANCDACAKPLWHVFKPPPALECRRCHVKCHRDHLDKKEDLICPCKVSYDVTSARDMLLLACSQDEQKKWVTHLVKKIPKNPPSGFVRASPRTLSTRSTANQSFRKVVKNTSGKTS

K562 = assay: Antiproliferative activity against human K562 cells; format: functional, cell-based
[6] = target: T2, 3-phosphoinositide-dependent protein kinase 1; assay: Inhibition of PDK1

SMILES	IC50 (TGF-beta receptor type-1)	IC50 (HEL)	IC50 [1]	IC50 (OCI-AML2)	IC50 [2]	IC50 [3]	IC50 (Aurora kinase A)	IC50 (Aurora kinase B)	IC50 [4]	IC50 [5]	IC50 (K562)	IC50 [6]
CC[C@@H]1CO[C@H](C(=O)NC2CCCCC2)CN1c1cc(-c2ccc3c(N)n[nH]c3c2)nc(NC)n1	> 10000 nM	16000 nM	102 nM	890 nM	460 nM	760 nM	> 10000 nM	1580 nM	85 nM	> 10000 nM	> 30000 nM	6.31 nM
CNc1nc(-c2ccc3c(N)n[nH]c3c2)cc(N2C[C@@H](C(=O)NC3CCCCC3)OC[C@H]2C)n1	> 10000 nM	19000 nM	30 nM	460 nM	390 nM	690 nM	> 10000 nM	5010 nM	24 nM	> 10000 nM	> 30000 nM	3.16 nM

— ChEMBL document CHEMBL1765070, “Structure-based design of potent and selective 3-phosphoinositide-dependent kinase-1 (PDK1) inhibitors” (J Med Chem, 2011)
